Reference: patent publication US9555115B2, “Pharmaceutical composition for oral administration with improved dissolution and/or absorption” (Taiho Pharmaceutical Co., Ltd., priority 2012, dated 2017)

Assay: Compatibility test: related substances by HPLC after storage of mixed powders
Assay type: physicochemical
Source text: 4-((1-methylpyrrol-2-yl)-carbonyl)-N-(4-(4-morpholin-1-yl-carbonylpiperidin-1-yl)-phenyl)-1-piperazinecarboxamide (compound 1) monohydrate and organic acids were respectively weighed in an amount of 0.5 g. Compound 1 monohydrate was mixed with each organic acid in a mortar to produce individual mixed powders. Subsequently, compound 1 monohydrate alone was weighed in an amount of 0.5 g to produce a compound 1 monohydrate powder according to the same method as in the production of the organic acid mixed powders.
Each organic acid mixed powder and each compound 1 monohydrate powder were weighed in amounts of 0.04 g and 0.02 g, respectively, in sealed and open glass bottles. These bottles were allowed to stand at 60° C. and a relative humidity of 60% for two weeks, and then the production of a compound 1 monohydrate related substance was examined by HPLC to evaluate stability. In the evaluation, a high-speed liquid chromatograph (Shimadzu Corporation) was used.
Detector: Ultraviolet spectrophotometer (measurement wavelength: 260 nm)
Column: Phenylated silica gel for liquid chromatography (3.5 μm) (XBridge Phenyl, Japan Waters, Inc.) was placed in a stainless pipe with an inner diameter of 4.6 mm and a length of 10 cm.
Column temperature: Constant temperature of around 40° C.
Mobile phase A: Phosphate buffer solution (pH 7)
Mobile phase B: Acetonitrile
Transfer of mobile phase: The concentration gradient is regulated by changing the mixing ratio of mobile phases A and B as shown in Table 1.

Initial value Related Substances (initial value, before storage): 0.46 mass %
Open Related Substances (open glass bottle, 60° C., relative humidity 60%, two weeks): 0.47 mass %
Sealed Related Substances (sealed glass bottle, 60° C., relative humidity 60%, two weeks): 0.44 mass %
SMILES: Cn1cccc1C(=O)N1CCN(C(=O)Nc2ccc(N3CCC(C(=O)N4CCOCC4)CC3)cc2)CC1.O [Compound 1 monohydrate, 4-((1-methylpyrrol-2-yl)-carbonyl)-N-(4-(4-morpholin-1-yl-carbonylpiperidin-1-yl)-phenyl)-1-piperazinecarboxamide]
